# Literature values in patent US12533325B2, “Composition and method for preventing or treating opioid withdrawal symptoms” (priority 2023, dated 2026).
# Test system: heroin-seeking behavior
smiles,measurement,setting,value
"C=C(C)[C@@H]1CCC(C)=C[C@H]1c1c(O)cc(CCCCC)cc1O [CBD, Cannabidiol]",heroin-seeking behavior reinstated by a conditional stimulus,cue-induced reinstatement,attenuated heroin-seeking behavior reinstated by a conditional stimulus
same,persistence of effect on heroin-seeking behavior after administration,twenty-four hours and two weeks after administration,protracted effect with significance after twenty-four hours and even two weeks after administration
